Each block holds one compound with its values, some of them ahead of it.
Columns and labels:
[1] = system: renal dehydropeptidase-1 (DHP-1); conditions: background art; cited from earlier work
C. freudii GN346 = test: Antibacterial activity (MIC, two-fold method), C. freudii GN346; type: cell-based; set-up: unit not given here
Ps. aeruginosa M-0148 = test: Antibacterial activity (MIC, two-fold method), Ps. aeruginosa M-0148; type: cell-based; set-up: unit not given here
P. vulgaris GN76 = test: Antibacterial activity (MIC, two-fold method), P. vulgaris GN76; type: cell-based; set-up: unit not given here
K. pneumoniae PC1602 = test: Antibacterial activity (MIC, two-fold method), K. pneumoniae PC1602; type: cell-based; set-up: unit not given here
E. faecalis W-73 = test: Antibacterial activity (MIC, two-fold method), E. faecalis W-73; type: cell-based; set-up: unit not given here
E. coli NIHJ JC-2 = test: Antibacterial activity (MIC, two-fold method), E. coli NIHJ JC-2; type: cell-based; set-up: unit not given here
S. marcescens GN10857 = test: Antibacterial activity (MIC, two-fold method), S. marcescens GN10857; type: cell-based; set-up: unit not given here
S. aureus 209P JC-1 = test: Antibacterial activity (MIC, two-fold method), S. aureus 209P JC-1; type: cell-based; set-up: unit not given here
E. coli 255 = test: Antibacterial activity (MIC, two-fold method), E. coli 255; type: cell-based; set-up: unit not given here
Ps. aeruginosa E-2 = test: Antibacterial activity (MIC, two-fold method), Ps. aeruginosa E-2; type: cell-based; set-up: unit not given here
E. cloacae GN747 = test: Antibacterial activity (MIC, two-fold method), E. cloacae GN747; type: cell-based; set-up: unit not given here
S. aureus M126 = test: Antibacterial activity (MIC, two-fold method), S. aureus M126 (methicillin-resistant); type: cell-based; set-up: unit not given here
Excerpt: *: Methicillinresistant Staphylococcus aureus-

Acute toxicity = type: in vivo; conditions: three ICR male mice, 1500 mg/kg i.v.

SMILES: C[C@@H](O)[C@H]1C(=O)N2C(C(=O)O)=C(SCCN=CN)C[C@H]12 [Imipenem]
stability against renal dehydropeptidase-1 (DHP-1) [1]: instability

MIC (C. freudii GN346): 0.10 | MIC (Ps. aeruginosa M-0148): 3.13 | MIC (P. vulgaris GN76): 0.78 | MIC (K. pneumoniae PC1602): 0.20 | MIC (E. faecalis W-73): 6.25 | MIC (E. coli NIHJ JC-2): 0.20 | MIC (S. marcescens GN10857): 0.39 | MIC (S. aureus 209P JC-1): < 0.025 | MIC (E. coli 255): 0.20 | MIC (Ps. aeruginosa E-2): 3.13 | MIC (E. cloacae GN747): 0.20 | MIC (S. aureus M126): 6.25
SMILES: C[C@@H](O)[C@H]1C(=O)N2C(C(=O)[O-])=C(Cn3cc4sc(C(N)=O)c[n+]4c3)[C@H](C)[C@H]12 [Example 68, (1S,5R,6S)-6-[(1R)-1-hydroxyethyl]-2-(2-carbamoylimidazo[5,1-b]thiazolium-6-yl)methyl-1-methyl-1-carbapen-2-em-3-carboxylate]

SMILES: C[C@@H](O)[C@H]1C(=O)N2C(C(=O)[O-])=C(C[n+]3cc4scc(CNS(N)(=O)=O)n4c3)[C@H](C)[C@H]12 [Example 14, (1S,5R,6S)-6-[(1R)-1-hydroxyethyl]-2-[3-(aminosulfonyl)aminomethylimidazo[5,1-b]thiazolium-6-yl]methyl-1-methyl-1-carbapen-2-em-3-carboxylate]
survival (acute toxicity) (Acute toxicity): All the animal survived

From patent US5990101A, “Carbapenem derivatives” (Meiji Seika Kabushiki Kaisha, priority 1995, dated 1999)
